From patent US6630316B1, “Method for measurement of lymphocyte function” (priority 1996, dated 2003)

Tests used:
Format in all cases: cell-based
[1] = tested on: CD4 positive T lymphocytes; experiment: ATP (luciferin:luciferase) response of PBMC separated using CD4 antibody and goat anti-mouse paramagnetic beads; settings: PHA 1 ug/ml, 24 hours, CD4 separation, unstimulated 8768
[2] = tested on: T lymphocytes separated by CD4, CD69, or CD3; experiment: ATP response after PHA stimulation of T lymphocytes separated by CD4, CD69 or CD3; settings: PHA (1%) for 24, 48, 72 or 96 hours; separation by CD3, CD4 or CD69
[3] = tested on: T lymphocytes (CD4) in whole blood; experiment: T cell response to mitogens in a whole blood sample (CD4 separation, ATP luminescence); settings: whole blood diluted 1:5, incubated overnight at 37 C; PHA at 1%, IL-2 at 1000 U/ml; control 458,451
[4] = tested on: CD8 positive T lymphocytes

phytohemagglutinin [PHA]
Relative Light Units [1]: 38903 Relative Light Units
relative light units from stimulated cells versus unstimulated cells [2]: greater than those from the unstimulated cells
Relative Light Units [3]: 5,836,682 Relative Light Units
stimulation index [4]: > 10
